Measured values: patent US8202513B2, “Aryl potassium channel blockers and uses thereof” (Bionomics Limited, priority 2007, dated 2012)

Each compound was assayed against T1, human Kv1.3 ion channel (Homo sapiens, UniProt P22001) (assay: Inhibition of Kv1.3 currents, planar patch clamp). Details: Human Jurkat cells or CHO cells stably transfected with hKv1.3; averaged dose response data from 3 or more cells.
T1 construct: Human Jurkat cells (which endogenously express hKv1.3) or Chinese Hamster Ovary (CHO) cells stably transfected with hKv1.3 were used; endogenous in cells; host or cells: Human Jurkat cells (endogenous) or CHO cells stably transfected with hKv1.3
T1 sequence (P22001 whole entry): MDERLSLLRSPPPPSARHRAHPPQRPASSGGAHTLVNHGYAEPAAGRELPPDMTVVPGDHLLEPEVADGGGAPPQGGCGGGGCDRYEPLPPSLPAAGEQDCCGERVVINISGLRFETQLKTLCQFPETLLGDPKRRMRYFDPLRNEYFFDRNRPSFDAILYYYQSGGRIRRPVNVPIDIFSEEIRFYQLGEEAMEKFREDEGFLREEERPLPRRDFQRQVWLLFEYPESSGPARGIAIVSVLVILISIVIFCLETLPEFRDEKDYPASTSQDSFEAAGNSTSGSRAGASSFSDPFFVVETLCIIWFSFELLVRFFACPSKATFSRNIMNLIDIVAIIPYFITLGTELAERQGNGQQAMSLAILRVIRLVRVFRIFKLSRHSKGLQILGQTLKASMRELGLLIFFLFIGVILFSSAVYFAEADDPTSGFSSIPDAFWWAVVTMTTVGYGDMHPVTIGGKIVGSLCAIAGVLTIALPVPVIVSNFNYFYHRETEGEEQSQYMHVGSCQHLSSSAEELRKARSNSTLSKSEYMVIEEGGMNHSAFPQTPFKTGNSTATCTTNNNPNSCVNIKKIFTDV
Format: cell-based
Procedure: Potency of compounds to inhibit the human Kv1.3 ion channel was determined as follows:
EC50 values for inhibition of Kv1.3 currents were determined by the method according to Schmitz et al (2005) Molecular Pharmacology 68, 1254-1270 with the following differences: • 1. Human Jurkat cells (which endogenously express hKv1.3) or Chinese Hamster Ovary (CHO) cells stably transfected with hKv1.3 were used in place of transfected rat L929 cells. • 2. All electrophysiology was performed using planar patch clamp (Port-A-Patch, Nanion Technologies Gmbh, Munich) in contrast to conventional patch clamp. • 3. EC50 values shown were determined from averaged dose response data obtained from 3 or more cells.

Compound | EC50 [µM]
COc1c(Cl)c(C)c(C(C)=O)c(OCCN2CCOCC2)c1OCCCc1ccc(F)cc1 [Example 1f, 1-(3-Chloro-5-(3-(4-fluorophenyl)propoxy)-4-methoxy-2-methyl-6-(2-morpholinoethoxy)phenyl)ethanone] | 0.05 to 0.15
COc1c(Cl)c(C)c(C(C)=O)c(OCCNC2CCCC2)c1OCCCc1ccc(F)cc1 [Example 2, 1-(3-Chloro-6-(cyclopentylamino)ethoxy)-5-(3-(4-fluorophenyl)propoxy-4-methoxy-2-methylphenyl)ethanone] | < 0.05
COc1c(C)c(C)c(C(C)=O)c(OCCN2CCOCC2)c1OCCCc1ccc(F)cc1 [Example 3c, 1-[3-[3-(4-Fluoro-phenyl)-propoxy]-4-methoxy-5,6-dimethyl-2-(2-morpholin-4-yl-ethoxy)-phenyl]-ethanone] | 0.05 to 0.15
COc1c(C)c(C)c(C(C)=O)c(OCCc2ccccn2)c1OCCC(C)c1ccc(F)cc1 (centres unmarked) [Example 4f, 1-[3-[3-(4-Fluoro-phenyl)-butoxy]-4-methoxy-5,6-dimethyl-2-(2-pyridin-2-yl-ethoxy)-phenyl]-ethanone] | < 0.05
COc1c(C)c(C)c(C(C)=O)c(OCCN2CCOCC2)c1OCCC(C)c1ccc(F)cc1 (centres unmarked) [Example 5, 1-[3-[3-(4-Fluoro-phenyl)-butoxy]-4-methoxy-5,6-dimethyl-2-(2-morpholin-4-yl-ethoxy)-phenyl]-ethanone] | < 0.05
COc1c(C)c(C)c(C(C)=O)c(OCCNC2CCCC2)c1OCCC(C)c1ccc(F)cc1 (centres unmarked) [Example 6, 1-{2-(2-Cyclopentylamino-ethoxy)-3-[3-(4-fluoro-phenyl)-butoxy]-4-methoxy-5,6-dimethyl-phenyl}-ethanone] | < 0.05
COc1c(Cl)c(C)c(C(C)=O)c(OCCNC2CCCC2)c1OCCC(C)c1ccc(F)cc1 (centres unmarked) [Example 9, 1-[3-Chloro-6-(2-cyclopentylamino-ethoxy)-5-[3-(4-fluoro-phenyl)-butoxy]-4-methoxy-2-methyl-phenyl]-ethanone] | 0.05 to 0.15
COc1c(Cl)c(C)c(C(C)=O)c(OCCN2CCCCC2)c1OCCC(C)c1ccc(F)cc1 (centres unmarked) [Example 10, 1-[3-Chloro-5-[3-(4-fluoro-phenyl)-butoxy]-4-methoxy-2-methyl-6-(2-piperidin-1-yl-ethoxy)-phenyl]-ethanone] | < 0.05
COc1c(Cl)c(C)c(C(C)=O)c(OCCN2CCC(F)CC2)c1OCCC(C)c1ccc(F)cc1 (centres unmarked) [Example 11, 1-{3-Chloro-5-[3-(4-fluoro-phenyl)-butoxy]-6-[2-(4-fluoro-piperidin-1-yl)-ethoxy]-4-methoxy-2-methyl-phenyl}-ethanone] | 0.05 to 0.15
COc1c(Cl)c(C)c(C(C)=O)c(OCCN2CC[C@@H](F)C2)c1OCCC(C)c1ccc(F)cc1 (some centres unmarked) [Example 12, 1-{3-Chloro-5-[3-(4-fluoro-phenyl)-butoxy]-6-[2-(R-3-fluoro-pyrrolidin-1-yl)-ethoxy]-4-methoxy-2-methyl-phenyl}-ethanone] | < 0.05
COc1c(Cl)c(C)c(C(C)=O)c(OCc2ccccn2)c1OCCC(C)c1ccc(F)cc1 (centres unmarked) [Example 13, 1-[3-Chloro-5-[3-(4-fluoro-phenyl)-butoxy]-4-methoxy-2-methyl-6-(pyridin-2-ylmethoxy)-phenyl]-ethanone] | 0.15 to 0.3
COc1c(Cl)c(C)c(C(C)=O)c(OCCN2CCC(O)CC2)c1OCCC(C)c1ccc(F)cc1 (centres unmarked) [Example 14, 1-{3-Chloro-5-[3-(4-fluoro-phenyl)-butoxy]-6-[2-(4-hydroxy-piperidin-1-yl)-ethoxy]-4-methoxy-2-methyl-phenyl}-ethanone] | 0.05 to 0.15
COc1c(Cl)c(C)c(C(C)=O)c(OCCN2CCC(=O)CC2)c1OCCC(C)c1ccc(F)cc1 (centres unmarked) [Example 15, 1-{3-Chloro-5-[3-(4-fluoro-phenyl)-butoxy]-6-[2-(4-oxo-piperidin-1-yl)-ethoxy]-4-methoxy-2-methyl-phenyl}-ethanone] | < 0.05
COc1c(Cl)c(C)c(C(C)=O)c(OCCN2CCC(F)(F)CC2)c1OCCC(C)c1ccc(F)cc1 (centres unmarked) [Example 16, 1-{3-Chloro-6-[2-(4,4-difluoro-piperidin-1-yl)-ethoxy]-5-[3-(4-fluoro-phenyl)-butoxy]-4-methoxy-2-methyl-phenyl}-ethanone] | 0.05 to 0.15
